From patent publication US20140314752A1, “METHODS FOR TREATING CANCER USING TOR KINASE INHIBITOR COMBINATION THERAPY” (Signal Pharmaceuticals, LLC, priority 2013, published 2014)

How the values were obtained:
Format in all cases: cell-based, human
[1] = tested on: Lenalidomide-resistant H929 cell lines (H929 R10-1 through 4); test: Anti-proliferative effect on lenalidomide-resistant H929 cell lines; settings: lenalidomide-resistant H929 lines with ~50% reduction in cereblon protein
Procedure: Cell density and viability were monitored using the Vi-cell XR cell viability analyzer (Beckman Coulter). Once cell viability was >90% and cell density was ˜5×10^5 cells/mL (log phase), the cells were incubated at the indicated concentrations of a TOR kinase inhibitor and/or second active agent at a final concentration of 0.1% vehicle (DMSO). For combination studies, the TOR kinase inhibitor and the second active agent were simultaneously added to cells in triplicate. Cell proliferation was determined after 5 days of treatment by flow cytometry on unfixed cells and using 7-aminoactinomycin D (7AAD) (Molecular Probes, Carlsbad, Calif., USA) exclusion (0.25% final dye concentration) for viability assessment. Flow cytometry was utilized to gate on the target cells and to measure 7AAD negative and 7AAD positive cells. Stained cells were analyzed on a FACS Array flow cytometer with standard BD FACS Array System software (BDBiosciences, Palo Alto, Calif.). The percentage of surviving cells (7AAD negative) was calculated relative to cells treated with vehicle (DMSO) control. For single compound treatments (TOR kinase inhibitor and second active agents separately), the average values from triplicates were plotted to obtain IC50 values using software XLfit from IDBS. […]

[2] = tested on: lenalidomide-sensitive and resistant myeloma cell lines; test: Combination effects in lenalidomide-sensitive and resistant myeloma cell lines; settings: multiple myeloma cell lines in vitro
Excerpt: Cell lines and cell culture: Cell lines were purchased from American Type Culture Collection (ATCC) and maintained in culture medium recommended by ATCC. […] Multiple myeloma (MM) cell lines that were used or can be used include the following: NCI-H929, LP-1, MM1.s, U266B1, DF-15 and RPMI-8226 human MM-derived cell lines. The […] ® resistant cell lines H929/R1, H929/R2, H929/R3 and H929/R4 were established by continuous exposure of H929 parental cells (H929) to increasing concentrations of […] ® for a minimum of 5 months. The control cell line H929/D was established by continuous exposure of H929 parental cells to 0.1% DMSO.
The number of cells affected by compound treatment was normalized to the DMSO control (100% viability) and the data was imported into the CalcuSyn software (V2.1, Biosoft). Synergism was quantitated by the combination index (CI) using CalcuSyn according to Chou-Talalay's CI method with mathematical modeling and simulations. […] ED50 is the median effect dose at which a 50% growth inhibition is achieved.
Cell density and viability were monitored using the Vi-cell XR cell viability analyzer (Beckman Coulter). […] Cell proliferation was determined after 5 days of treatment by flow cytometry on unfixed cells and using 7-aminoactinomycin D (7AAD) (Molecular Probes, Carlsbad, Calif., USA) exclusion (0.25% final dye concentration) for viability assessment. […]

HepG2 cells = test: Anchorage independent growth (colony formation) assay; settings: single agent, concentrations of 0.1 to 100 μM
Procedure: (§1) Cell Lines/Cells. Human cell lines HepG2 and SK-Hep-1 cells were obtained from American Type Culture Collection (ATCC; Manassas, Va.). Cells were cultured in DMEM (Dulbecco's Modified Eagle's Medium) (Mediatech; Mannasas, Va.) with 10% Premium FBS (Lonza, Walkersville, Md.).
(§2) (1) Single Agent Colony Formation Assay. Nobel Agar (1.2 grams; BD; Franklin Lakes, N.J.) was placed in a 100-mL sterile bottle. Sterile water (100 mL) was added and microwaved until the agar boiled. Equal volumes of agar and 2×RPMI medium (ECE Scientific; Doylestown, Pa.) were mixed and 300 μL were transferred to each well in a 24-well flat bottom plate (BD; Franklin Lakes, N.J.). Plates were kept at 4° C. until the agar solidified. Cultures of HepG2 and SK-Hep-1 cells were harvested and resuspended in culture medium at 3.6×10^3 cells/mL. Equal volumes of agar, 2×RPMI, and cell suspension (1:1:1) were mixed in a sterile tube and 500 μL/well were immediately transferred into the 24-well plates. Plates were kept at 4° C. until the agar solidified. Culture medium (500 μL) containing compound or DMSO was added to each well (final DMSO concentration for each treatment was 0.2%). Compound 1 was tested at final concentrations of 0.1, 0.3, 1, 3, 10 and 30 μM. […]
(§3) Significance versus the DMSO control was calculated using One Way ANOVA and Dunnett's Post test or unpaired t tests using GraphPad Prism v5.01.

SK-Hep-1 cells = test: as above; settings: single agent, concentrations of 0.1 to 100 μM
Procedure: as §1, §2, §3

SMILES | Anti proliferative effects, single agent [1] | Dependence of activity on cereblon protein levels [2] | Anti-colony forming activity (HepG2 cells) | Anti-colony forming activity (SK-Hep-1 cells)
CCN1C(=O)CNc2ncc(-c3ccc(-c4nc[nH]n4)nc3C)nc21 [Compound 2, 1-ethyl-7-(2-methyl-6-(1H-1,2,4-triazol-3-yl)pyridin-3-yl)-3,4-dihydropyrazino[2,3-b]pyrazin-2(1H)-one] | potent anti proliferative effects | independent of cereblon protein levels |  | 
CO[C@H]1CC[C@H](N2C(=O)CNc3ncc(-c4ccc(C(C)(C)O)nc4)nc32)CC1 [Compound 1, 7-(6-(2-hydroxypropan-2-yl)pyridin-3-yl)-1-((1r,4r)-4-methoxycyclohexyl)-3,4-dihydropyrazino-[2,3-b]pyrazin-2(1H)-one] | potent anti proliferative effects | independent of cereblon protein levels | dose-dependent and significant anti-colony forming activity | dose-dependent and significant anti-colony forming activity
